# In ChEMBL document CHEMBL1649252, “Plasmodium falciparum drug resistance in Madagascar: facing the spread of unusual pfdhfr and pfmdr-1 haplotypes and the decrease of dihydroartemisinin susceptibility” (Antimicrob Agents Chemother, 2009):
# How the values were obtained:
# Plasmodium falciparum [1] = test: Antimalarial activity against Plasmodium falciparum assessed as parasite growth inhibition after 48 hrs by [3H]hypoxanthin incorporation assay; type: functional, organism-based
# Plasmodium falciparum [2] = test: Antimalarial activity against Plasmodium falciparum assessed as resistant isolates; type: functional
SMILES,IC50 (Plasmodium falciparum [1]),Activity (Plasmodium falciparum [2])
C[C@H]1[C@@H](O)O[C@@H]2O[C@@]3(C)CC[C@H]4[C@H](C)CC[C@@H]1[C@@]24OO3 [ARTENIMOL],0.95 nM,0%
CCN(CC)CCCC(C)Nc1ccnc2cc(Cl)ccc12 (centres undefined) [CHLOROQUINE],,3.2%
CCNCc1cc(Nc2ccnc3cc(Cl)ccc23)ccc1O [DESETHYL AMODIAQUINE],8.3 nM,0.5%
OC(c1cc(C(F)(F)F)nc2c(C(F)(F)F)cccc12)C1CCCCN1 (centres undefined) [MEFLOQUINE],6.7 nM,0.4%
C=C[C@H]1CN2CC[C@H]1C[C@H]2[C@H](O)c1ccnc2ccc(OC)cc12 [QUININE],53.7 nM,0%
